The numbers were not newly measured in US8808752B2, “Controlled release particles and method for producing the same” (priority 2009, dated 2014), which cites them from elsewhere.

As to `C=C(C)C(=O)OCCOC(=O)C(=C)C` [Ethylene glycol dimethacrylate], the “water solubility (in words)” value is “water-insoluble”.
Regarding `CSc1nc(NC2CC2)nc(NC(C)(C)C)n1` [MBACT, 2-methylthio-4-t-butylamino-6-cyclopropylamino-s-triazine, reference compound], the water solubility is reported as 7 ppm.
As for `C=C(C)C(=O)O` [Methacrylic acid], the water solubility is reported as 8.9 wt %.
For the compound `CCCC1COC(Cn2cncn2)(c2ccc(Cl)cc2Cl)O1` (centres unmarked) [Propiconazole, 1-[2-(2,4-dichlorophenyl)-4-n-propyl-1,3-dioxolane-2-ylmethyl]-1H-1,2,4-triazole, reference compound], the water solubility is reported as 110 ppm.
`C=C(C)C(=O)OCCCC` [n-Butyl methacrylate]: the water solubility is listed as 0.08 wt %.
